What was measured:
[1] = molecular target: D(2) dopamine receptor (Rattus norvegicus) (UniProt P61169); test: Displacement of spiperone from dopamine receptor D2 of rat brain membrane
[2] = molecular target: Sigma non-opioid intracellular receptor 1 (Rattus norvegicus) (UniProt Q9R0C9); test: Displacement of (+)-3PPP from sigma receptor of rat brain membrane
Sigma non-opioid intracellular receptor 1 (Rattus norvegicus), sequence (Q9R0C9 whole entry): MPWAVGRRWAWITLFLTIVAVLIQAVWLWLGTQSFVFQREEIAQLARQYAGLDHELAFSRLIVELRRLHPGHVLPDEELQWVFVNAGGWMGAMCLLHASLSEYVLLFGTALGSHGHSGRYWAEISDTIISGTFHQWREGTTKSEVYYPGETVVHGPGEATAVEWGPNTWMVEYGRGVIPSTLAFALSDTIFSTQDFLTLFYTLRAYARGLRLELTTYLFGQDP

D(2) dopamine receptor (Rattus norvegicus), sequence (P61169 whole entry): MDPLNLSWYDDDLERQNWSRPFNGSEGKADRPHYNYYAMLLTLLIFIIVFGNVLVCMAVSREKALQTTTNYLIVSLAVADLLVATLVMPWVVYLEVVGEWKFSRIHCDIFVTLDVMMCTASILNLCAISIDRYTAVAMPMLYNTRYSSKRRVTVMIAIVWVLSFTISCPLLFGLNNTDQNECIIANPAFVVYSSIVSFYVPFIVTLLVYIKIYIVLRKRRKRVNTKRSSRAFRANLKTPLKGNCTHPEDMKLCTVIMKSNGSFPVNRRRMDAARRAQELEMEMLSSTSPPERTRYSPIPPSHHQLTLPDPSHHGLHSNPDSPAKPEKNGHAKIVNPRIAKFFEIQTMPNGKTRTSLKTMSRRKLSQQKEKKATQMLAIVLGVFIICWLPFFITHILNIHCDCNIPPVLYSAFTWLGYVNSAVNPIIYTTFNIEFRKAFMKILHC

Compound | Log IC50 [1] [µM] | Log IC50 [2] [µM]
CC(C)N1CCC[C@H](c2cccc(O)c2)C1 | 1.08 | 0.61
CCCN1CCC[C@H](c2cccc(O)c2)C1 |  | 1.52
CCc1ccc(N2CCC[C@@H](c3cccc(O)c3)C2)cc1 | 1.36 | 1.8
CCCCN1CCC[C@H](c2cccc(O)c2)C1 | 0.43 | 2.05
CCCN1CCC[C@@H](c2cccc(O)c2)C1 |  | 0.81
CN1CCC[C@H](c2cccc(O)c2)C1 | 0.61 | 0.43
CCCCN1CCC[C@@H](c2cccc(O)c2)C1 | 0.56 | 1.51
Oc1cccc([C@@H]2CCCNC2)c1 | 0.24 | 1.19
CC(C)N1CCC[C@@H](c2cccc(O)c2)C1 | 0.45 | 0.68
CCc1ccc(N2CCC[C@H](c3cccc(O)c3)C2)cc1 | 0.09 | 2.1
Oc1cccc([C@H]2CCCNC2)c1 | 0.36 | 0.66
